Consider one compound from patent publication US7166593B2, “Glucocorticoid receptor modulators” (Pfizer, Inc., priority 2000, dated 2007).

The subject of test [1] is IL-1 (Interleukin-1) induced MMP-1 (Matrix Metalloproteinase-1) production in SW1353 human chondrosarcoma cells. The experiment in a line: glucocorticoid inhibition of IL-1 induced MMP-1 production in human chondrosarcoma cells. Format: cell-based. To be noted: 20 ng/ml IL-1 beta, 72 hours after IL-1 addition, MMP-1 ELISA, read-out: IC50, inhibitor of MMP1 expression. How it is done:
(§1) This assay, the glucocorticoid inhibition of IL-1 (Interleukin-1) induced MMP-1 (Matrix Metalloproteinase-1) and IL-8 (Interleukin-8) production in human chondrosarcoma cells, is conducted as follows: SW1353 human chondrosarcoma cells (obtained from ATCC) from passage 12 through passage 19 are used in a 96 well format assay. Cells are plated at confluence into 96 well plates in DMEM (Dulbecco's Modified Eagle Medium) with 10% fetal bovine serum and incubated at 37° C., 5% CO2. After 24 hours, serum containing media is removed and replaced with 200 ul/well DMEM containing 1 mg/L insulin, 2 g/L lactalbumin hydrosylate, and 0.5 mg/L ascorbic acid and returned to incubation at 37° C., 5% CO2. […] IL-8 production is assessed using the Quantikine human IL-8 ELISA kit from R&D Systems (D8050) on samples diluted 60. fold in RD5P Calibrator Diluent, following the manufacturer's protocol. The percent of the average IL-1 control is determined for the average of each of the triplicate samples following subtraction of the average signal from untreated cells. IC50's are determined from log linear plots of the percent of control versus the concentration of inhibitor. […] MMP-1 production is assessed via the Bio-Trak MMP-1 ELISA kit from Amersham (RPN2610) on 100 ul of neat sample following the manufacturer's protocol. […]
(In general: ELISA stands for enzyme-linked immunosorbent assay.)

The subject of test [2] is IL-1 (Interleukin-1) induced IL-8 (Interleukin-8) production in SW1353 human chondrosarcoma cells. The experiment in a line: glucocorticoid inhibition of IL-1 induced IL-8 production in human chondrosarcoma cells. The format is cell-based. Particulars: 20 ng/ml IL-1 beta, 24 hours after addition of IL-1, IL-8 ELISA, read-out: IC50, inhibitor of IL-8 expression. How it is done: as §1

Usually IC50 stands for the point on the concentration scale where inhibition reaches its midpoint.

With `C[C@@H]1C[C@H]2[C@@H]3CCC4=CC(=O)C=C[C@]4(C)[C@@]3(F)[C@@H](O)C[C@]2(C)[C@@]1(O)C(=O)CO` [Dexamethasone, (11β,16α)-9-fluoro-11,17,21-trihydroxy-16-methylpregna-1,4-diene-3,20-dione], the IC50 in test [1] and in test [2] was 5 nM each time.
